{"source": "patent US20100120787A1", "about": "“MODIFICATION OF AMYLOID-BETA LOAD IN NON-BRAIN TISSUE” (MODGENE, LLC, priority 2008, published 2010)", "key": {"[1]": {"tested_on": "primary neurons prepared from cerebral cortex", "conditions": "embryonic day 18 rats; cited from earlier work"}, "Aβ accumulation in brain": {"tested_on": "Aβ accumulation in brain", "conditions": "intrathecal delivery by osmotic minipumps, guinea pigs; cited from earlier work"}, "Notch signaling": {"tested_on": "Notch signaling", "conditions": "while reducing Aβ production; cited from earlier work"}, "[2]": {"conditions": "cited from earlier work"}, "[3]": {"conditions": "humans; cited from earlier work"}, "[4]": {"conditions": "pH 8; cited from earlier work"}, "[5]": {"conditions": "cited from earlier work", "remark": "listed apart in the source"}, "Aβ hexamers in plasma": {"tested_on": "Aβ hexamers in plasma", "experiment": "Plasma (blood) Aβ levels in mice after intraperitoneal STI-571, Western blot/ELISA", "type": "in vivo, mouse", "protocol": "[…]. Wild-type C57Bl/6 and DBA/2J male mice (age 8-12 weeks) were administered drug or vehicle twice daily for 7 days by intraperitoneal injection. […]. […] See, for example, Gleevec Prescribing Information 2003 revision T2003-09; Printed in U.S.A. 89019001 (Novartis), incorporated herein by reference.\nAnimals were sacrificed 12 hr after the last injection. Individual mice were anesthetized with isoflurane and blood samples (100-300ul) taken by cardiac puncture with heparinized syringes. Samples were placed on ice for 30 minutes in the presence of EDTA and then centrifuged for 20 minutes at 16,000×g at 4° C. The plasma fraction was removed and stored at −80° C. Brains were removed and frozen rapidly on dry ice and stored at −80° C.\nDetection of mouse Aβ1-40 in blood and brain samples was performed by using a commercially available immunoassay kit (Biosource mouse Aβ1-40, Catalog No. KMB3481, Invitrogen, Carlsbad, Calif.) or by Western blot. Mouse brain samples were prepared by homogenizing brain tissue in a polytron in the presence of 5M guanidine HCl and 50 mM Tris HCl, pH 8.0 as described in the assay protocol. […]\nBlood samples were diluted 1:5 in standard diluent buffer. Samples were assayed in duplicate and OD450 measured on a Tecan infinite 2000 plate reader. […]"}, "[6]": {"conditions": "statement in words, cited from earlier work"}}, "note": "Like-named read-outs stand apart in the source and are kept apart here.", "data": [{"compound": "6-(2,6-dichlorophenyl)-8-methyl-2-(methylsulfanylphenyl-amino)-8H-pyrido[2,3-d]pyrimidin-7-one [inhibitor 2]", "values": [{"measurement": "production of Aβ", "setting": "[1]", "result": "reduce production of Aβ"}, {"measurement": "Aβ accumulation in brain", "setting": "Aβ accumulation in brain", "result": "decrease in Aβ accumulation in brain"}, {"measurement": "effect on Notch signaling", "setting": "Notch signaling", "result": "without affecting Notch signaling"}]}, {"compound": "Cc1ccc(NC(=O)c2ccc(CN3CCNCC3)cc2)cc1Nc1nccc(-c2cccnc2)n1", "note": "[N-desmethyl derivative]", "values": [{"measurement": "plasma AUC of metabolite relative to the AUC for imatinib", "setting": "[2]; humans", "result": "about 15%"}, {"measurement": "elimination half-life", "setting": "[2]; oral administration in healthy volunteers", "result": "~40", "unit": "h"}]}, {"compound": "COc1cc([S+](C)[O-])ccc1-c1nc2ncccc2[nH]1", "note": "(centres unmarked) [ARL115, sulmazole]", "values": [{"measurement": "CNS side effects", "setting": "[3]", "result": "lack the CNS side effects"}, {"measurement": "log P", "setting": "[4]", "result": 1.17}]}, {"compound": "COc1ccc(-c2nc3ncccc3[nH]2)c(OC)c1.Cl", "note": "[ARL-57]", "values": [{"measurement": "CNS side effects", "setting": "[3]", "result": "spectacular bright color vision"}, {"measurement": "log P", "setting": "[4]", "result": 2.59}]}, {"compound": "Cc1ccc(NC(=O)c2ccc(CN3CCN(C)CC3)cc2)cc1Nc1nccc(-c2cccnc2)n1", "note": "[STI-571]", "values": [{"measurement": "absorption after oral administration", "setting": "[5]; human, in vivo, po", "result": "rapidly absorbed"}, {"measurement": "mean AUC versus dose", "setting": "[5]; human, in vivo", "result": "did not increase proportionally with increasing dose"}, {"measurement": "Cmax (time)", "setting": "[5]; pediatric patients, oral", "result": "2 to 4", "unit": "h"}, {"measurement": "reduction of plasma levels of Aβ", "setting": "Aβ hexamers in plasma; 20 mg/kg IP twice daily for 7 days, B6 mice", "result": "approximately 50%"}, {"measurement": "reduction of circulating Aβ", "setting": "Aβ hexamers in plasma; highest dose (100 mg/kg) IP twice daily for 7 days, young D2 mice", "result": "approximately 75%"}, {"measurement": "penetration of the blood-brain barrier", "setting": "[6]", "result": "poor penetration of the blood-brain barrier"}, {"measurement": "penetration of the blood-brain barrier", "setting": "[6]; listed as GLEEVEC/STI-571", "result": "poor penetration of the blood-brain barrier"}, {"measurement": "penetration of the blood-brain barrier", "setting": "[6]; listed as imatinib", "result": "does not substantially penetrate the blood brain barrier"}]}]}
